Data from patent US20130289471A1, “GAS BASED WOUND AND TISSUE THERAPEUTICS” (Virginia Commonwealth University, priority 2008, published 2013).

Columns and labels:
[1] = Lipophilicity of the preferred PFC (statement); assay type: physicochemical
Text: Being that the PFCs are slightly lipophilic at body temperature and would help in the transport of oxygen into and removal of carbon dioxide from the skin tissue, PFCs can accelerate the healing process of a wound in a tissue.

[2] = Physical properties of F-tert-butylcyclohexane; assay type: physicochemical; parameters: Kinematic Viscosity: unit not given here
Text: Oxycyte® is based on the perfluorocarbon F-tert-butylcyclohexane, a saturated alicyctic PFC (molecular formula C10F20) and can be used as a PFC composition in the methods and uses described herein. Physical properties of F-tert-butylcyclohexane are as follows: […]

## FC(F)(F)C(C(F)(F)F)(C(F)(F)F)C1(F)C(F)(F)C(F)(F)C(F)(F)C(F)(F)C1(F)F [F-tert-butylcyclohexane, perfluoro-tert-butylcyclohexane]
[1]; at body temperature
  lipophilicity: only slightly lipophilic
[1]; at room temperature
  lipophilicity: not lipophilic
[2]
  Density: 1.97 g/mL
  Kinematic Viscosity: 5.378
[2]; 25° C.
  Vapor Pressure @ 25° C.: 3.8 mmHg
[2]; 37° C.
  Vapor Pressure @ 37° C.: 4.4 mmHg
